Test results taken from patent EP4389751A1, “HETEROCYCLIC COMPOUNDS AND USES THEREOF” (Kumquat Biosciences Inc., priority 2021, dated 2024).

Target: T1, K-Ras G12S (Homo sapiens, UniProt P01116, G12S)
T1 construct: made in house; host or cells: E. coli (e.g., BL21 (DE3))
Experiment: HTRF assay of the K-Ras / SOS1 interaction
Format: biochemical
Details: IC50 (against K-Ras G12D) to IC50 (against K-Ras G12S)
Excerpt: This assay can be also used to assess a selective inhibition or reduction of signaling output of a mutant Ras protein relative to a wildtype, or relative to a different mutant Ras protein. For example, the equilibrium interaction of wildtype Kras or K-Ras mutant (e.g., wildtype or a mutant thereof including those mentioned in Example 6) with SOS1 (e.g., hSOS1) can be assessed as a proxy or an indication for a subject compound's ability to bind and inhibit Ras protein. HTRF assay detects from (i) a fluorescence resonance energy transfer (FRET) donor (e.g., antiGST-Europium) that is bound to GST-tagged K-Ras mutant to (ii) a FRET acceptor (e.g., anti-6His-XL665) bound to a His-tagged hSOS 1.
The assay buffer can contain ~5 mM HEPES pH 7.4, -150 mM NaCI, - 1 mM DTT, 0.05% BSA and 0.0025% (v/v) Igepal. A Ras working solution is prepared in an assay buffer containing typically a suitable amount of the protein construct (e.g., GST-tagged K-Ras mutant) and the FRET donor (e.g., antiGST-Eu(K) from Cisbio, France). A SOS1 working solution is prepared in an assay buffer containing suitable amount of the protein construct (e.g., His-hSOS1) and the FRET acceptor (e.g., anti-6His-XL665 from Cisbio, France). A suitable amount of the protein construct will depend on the range of activity or range of IC50 values being detected or under investigation. For detecting IC50 within a range of 500 nM, the protein constructs of the same range of molarity can be utilized.
A fixed volume of DMSO with or without test compound is transferred into a 384-well plate. Ras working solution is added to all wells of the test plate. SOS1 working solution is added to all wells except for those that are subsequently filled the inhibitor control solution. Upon incubation for about 10 minutes or longer, the fluorescence is measured with a M1000Pro plate reader (Tecan) using HTRF detection (excitation 337nm, emission 1 : 620nm, emission 2: 665nm). Compounds are tested in duplicates at different concentrations (for example, 10 µM, 2.5 µM, 0.63 µM, 0.16 µM, 0.04 µM, 0.01 µM test compound). The ratiometric data (i.e., emission 2 divided by emission 1) is used to calculate IC50 values against Ras using GraphPad Prism (GraphPad software). Following this general procedure, samples were tested with or without a subject compound disclosed herein including compounds exemplified in Table 3 to assess their abilities to inhibit K-Ras G12S relative to another mutant (e.g., K-Ras G12D). Signaling output measured in terms of IC50 values can be obtained, a ratio of IC50 against one mutant relative to another mutant can be calculated. For instance, a selective reduction of K-Ras G12S signaling output can be evidenced by a ratio greater than one. In particular, a selective reduction of K-Ras G12S signaling relative to K-Ras G12D signaling is evidenced as the ratio of IC50 (against K-Ras G12D) to IC50 (against K-Ras G12S) is greater than 1. […]

T1 sequence (P01116 1-188 isoform P01116-2 G12S): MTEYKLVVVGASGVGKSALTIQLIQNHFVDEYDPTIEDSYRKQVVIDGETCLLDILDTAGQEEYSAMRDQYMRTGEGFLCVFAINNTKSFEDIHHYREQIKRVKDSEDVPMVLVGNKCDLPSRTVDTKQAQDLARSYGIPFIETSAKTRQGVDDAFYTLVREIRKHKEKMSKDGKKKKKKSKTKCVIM

SMILES | Ratio of IC50 KRAS G12D vs. IC50 KRAS G12S
Nc1nc2c(-c3c(Cl)cc4c(NC5CCC6(C5)CN(C(=O)n5cncn5)C6)nc(OC[C@@]56CCCN5C[C@H](F)C6)nc4c3F)ccc(F)c2s1 (stereo partly drawn) [Compound A142, (6-((7-(2-amino-7-fluorobenzo[d]thiazol-4-yl)-6-chloro-8-fluoro-2-(((2R,7aS)-2-fluorotetrahydro-1H-pyrrolizin-7a(5H)-yl)methoxy)quinazolin-4-yl)amino)-2-azaspiro[3.4]octan-2-yl)(1H-1,2,4-triazol-1-yl)methanone] | A (A: indicates that the ratio of IC50 against KrasG12D vs. IC50 against KrasG12S is 1-fold or greater)
Nc1nc2c(-c3c(Cl)cc4c(OC5CC6CN(C(=O)n7cncn7)CC65)nc(OC[C@@]56CCCN5C[C@H](F)C6)nc4c3F)ccc(F)c2s1 (stereo partly drawn) [Compound A297, (6-((7-(2-amino-7-fluorobenzo[d]thiazol-4-yl)-6-chloro-8-fluoro-2-(((2R,7aS)-2-fluorotetrahydro-1H-pyrrolizin-7a(5H)-yl)methoxy)quinazolin-4-yl)oxy)-3-azabicyclo[3.2.0]heptan-3-yl)(1H-1,2,4-triazol-1-yl)methanone] | A (A: indicates that the ratio of IC50 against KrasG12D vs. IC50 against KrasG12S is 1-fold or greater)
Nc1nc2c(-c3c(Cl)cc4c(NCCN5CCN(C(=O)n6cncn6)CC5=O)nc(OC[C@@]56CCCN5C[C@H](F)C6)nc4c3F)ccc(F)c2s1 [Compound A261, 1-(2-((7-(2-amino-7-fluorobenzo[d]thiazol-4-yl)-6-chloro-8-fluoro-2-(((2R,7aS)-2-fluorotetrahydro-1H-pyrrolizin-7a(5H)-yl)methoxy)quinazolin-4-yl)amino)ethyl)-4-(1H-1,2,4-triazole-1-carbonyl)piperazin-2-one] | A (A: indicates that the ratio of IC50 against KrasG12D vs. IC50 against KrasG12S is 1-fold or greater)
C[C@H](Oc1nc(OC2CCN(C(=O)Nc3nccs3)C2)c2cc(Cl)c(-c3ccc(F)c4sc(N)c(C#N)c34)c(F)c2n1)[C@@H]1CCCN1C (stereo partly drawn) [Compound A237, 3-((7-(2-amino-3-cyano-7-fluorobenzo[b]thiophen-4-yl)-6-chloro-8-fluoro-2-((S)-1-((S)-1-methylpyrrolidin-2-yl)ethoxy)quinazolin-4-yl)oxy)-N-(thiazol-2-yl)pyrrolidine-1-carboxamide] | A (A: indicates that the ratio of IC50 against KrasG12D vs. IC50 against KrasG12S is 1-fold or greater)
N#Cc1c(N)sc2c(F)ccc(-c3c(Cl)cc4c(N5CCN(CC6CC6)C6(CN(C(=O)n7cncn7)C6)C5)nc(OC[C@@]56CCCN5C[C@H](F)C6)nc4c3F)c12 [Compound A139, 2-amino-4-(6-chloro-4-(5-(cyclopropylmethyl)-2-(1H-1,2,4-triazole-1-carbonyl)-2,5,8-triazaspiro[3.5]nonan-8-yl)-8-fluoro-2-(((2R,7aS)-2-fluorotetrahydro-1H-pyrrolizin-7a(5H)-yl)methoxy)quinazolin-7-yl)-7-fluorobenzo[b]thiophene-3-carbonitrile] | A (A: indicates that the ratio of IC50 against KrasG12D vs. IC50 against KrasG12S is 1-fold or greater)
Cc1nc(C(C)C)nn1C(=O)N1CC2(CCCN(c3nc(OC[C@@]45CCCN4C[C@H](F)C5)nc4c(F)c(-c5ccc(F)c6sc(N)c(C#N)c56)c(Cl)cc34)C2)C1 [Compound A240, 2-amino-4-(6-chloro-8-fluoro-2-(((2R,7aS)-2-fluorotetrahydro-1H-pyrrolizin-7 a(5H)-yl)methoxy)-4-(2-(3-isopropyl-5-methyl-1H-1,2,4-triazole-1-carbonyl)-2,6-diazaspiro[3.5]nonan-6-yl)quinazolin-7-yl)-7-fluorobenzo[b]thiophene-3-carbonitrile] | A (A: indicates that the ratio of IC50 against KrasG12D vs. IC50 against KrasG12S is 1-fold or greater)
Nc1nc2c(-c3c(Cl)cc4c(N5CCN(C6CN(C(=O)n7cncn7)C6)CC5)nc(OC[C@@]56CCCN5C[C@H](F)C6)nc4c3F)ccc(F)c2s1 [Compound A267, (3-(4-(7-(2-amino-7-fluorobenzo[d]thiazol-4-yl)-6-chloro-8-fluoro-2-(((2R,7aS)-2-fluorotetrahydro-1H-pyrrolizin-7a(5H)-yl)methoxy)quinazolm-4-yl)piperazin-1-yl)azetidin-1-yl)(1H-1,2,4-triazol-1-yl)methanone] | A (A: indicates that the ratio of IC50 against KrasG12D vs. IC50 against KrasG12S is 1-fold or greater)
C[C@H](Oc1nc(N2CCCCC3(CN(C(=O)n4cncn4)C3)C2)c2cc(Cl)c(-c3ccc(F)c4sc(N)c(C#N)c34)c(F)c2n1)[C@@H]1CCCN1C [Compound A167, 4-(4-(2-(1H-1,2,4-triazole-1-carbonyl)-2,6-diazaspiro[3.6]decan-6-yl)-6-chloro-8-fluoro-2-((S)-1-((S)-1-methylpyrrolidin-2-yl)ethoxy)quinazolin-7-yl)-2-amino-7-fluorobenzo[b]thiophene-3-carbonitrile] | A (A: indicates that the ratio of IC50 against KrasG12D vs. IC50 against KrasG12S is 1-fold or greater)
Nc1nc2c(-c3c(Cl)cc4c(N5C[C@H]6CC[C@@H](C5)N6C(=O)n5ccc(F)n5)nc(OC[C@@]56CCCN5C[C@H](F)C6)nc4c3F)ccc(F)c2s1 [Compound A214, ((1R,5S)-3-(7-(2-amino-7-fluorobenzo[d]thiazol-4-yl)-6-chloro-8-fluoro-2-(((2R,7aS)-2-fluorotetrahydro-1H-pyrrolizin-7a(5H)-yl)methoxy)quinazolin-4-yl)-3,8-diazabicyclo[3.2.1]octan-8-yl)(3-fluoro-1H-pyrazol-1-yl)methanone] | A (A: indicates that the ratio of IC50 against KrasG12D vs. IC50 against KrasG12S is 1-fold or greater)
N#Cc1c(N)sc2c(F)ccc(-c3c(Cl)cc4c(N5CCN(C(=O)Nc6nccs6)CC(O)C5)nc(OC[C@@]56CCCN5C[C@H](F)C6)nc4c3F)c12 (stereo partly drawn) [Compound A164, 4-(7-(2-amino-3-cyano-7-fluorobenzo[b]thiophen-4-yl)-6-chloro-8-fluoro-2-(((2R,7aS)-2-fluorotetrahydro-1H-pyrrolizin-7a(5H)-yl)methoxy)quinazolin-4-yl)-6-hydroxy-N-(thiazol-2-yl)-1,4-diazepane-1-carboxamide] | A (A: indicates that the ratio of IC50 against KrasG12D vs. IC50 against KrasG12S is 1-fold or greater)
Nc1nc2c(-c3c(Cl)cc4c(N5CC6(CCN(C(=O)n7cncn7)CC6)C5)nc(OC[C@@]56CCCN5C[C@H](F)C6)nc4c3F)ccc(F)c2s1 [Compound A292, (2-(7-(2-amino-7-fluorobenzo[d]thiazol-4-yl)-6-chloro-8-fluoro-2-(((2R,7aS)-2-fluorotetrahydro-1H-pyrrolizin-7a(5H)-yl)methoxy)quinazolin-4-yl)-2,7-diazaspiro[3.5]nonan-7-yl)(1H-1,2,4-triazol-1-yl)methanone] | A (A: indicates that the ratio of IC50 against KrasG12D vs. IC50 against KrasG12S is 1-fold or greater)
N#Cc1cccn1C(=O)N1CC2CCC(C1)N2c1nc(OC[C@@]23CCCN2C[C@H](F)C3)nc2c(F)c(-c3ccc(F)c4sc(N)nc34)c(Cl)cc12 [Compound A172, 1-(8-(7-(2-amino-7-fluorobenzo[d]thiazol-4-yl)-6-chloro-8-fluoro-2-(((2R,7aS)-2-fluorotetrahydro-1H-pyrrolizin-7a(5H)-yl)methoxy)quinazolin-4-yl)-3,8-diazabicyclo[3.2. 1]octane-3-carbonyl)-1H-pyrrole-2-carbonitrile] | A (A: indicates that the ratio of IC50 against KrasG12D vs. IC50 against KrasG12S is 1-fold or greater)
